What was measured:
Settings in all cases: three weeks after treatment
Echinochloa crus-galli [1] = assay: Post-emergence herbicidal evaluation, ECHCG
Oryza sativum [2] = assay: Post-emergence herbicidal evaluation, ORYSA
Lolium perenne [3] = assay: Post-emergence herbicidal evaluation, LOLPE
Hordeum vulgare [4] = assay: Post-emergence herbicidal evaluation, HORVW
Experimental: (§2) Each pot is examined three weeks after treatment and phytotoxicity is assessed according to the rating system set forth below.
(§3) These acetone solutions are diluted with water and the resulting formulations applied at dosage levels equivalent of about 0.4 to 0.1 kg per hectare of test compound per pot. After spraying the plants are placed on greenhouse benches and are cared for in the usual manner, commensurate with conventional greenhouse practices.

Oryza sativum [5] = assay: Pre-emergence herbicidal evaluation, ORYSA; type: in vivo
Excerpt: (§1) The treated pots are then placed on greenhouse benches, watered and cared for in accordance with conventional greenhouse procedures.

Apera spica venti [6] = assay: Post-emergence herbicidal evaluation, APESV
Experimental: (§4) The compounds of the invention are tested for pre- and post-emergence herbicidal activity.
as §2, §3

Setaria viridis [7] = assay: Post-emergence herbicidal evaluation, SETVI
Experimental: as §4, §2, §3

Glycine max [8] = assay: Post-emergence herbicidal evaluation, GLXMA
Triticum aestivum [9] = assay: Post-emergence herbicidal evaluation, TRZAW
Echinochloa crus-galli [10] = assay: Pre-emergence herbicidal evaluation, ECHCG; type: in vivo
Excerpt: as §1

Apera spica venti [11] = assay: Pre-emergence herbicidal evaluation, APESV; type: in vivo
Excerpt: as §1

Triticum aestivum [12] = assay: Pre-emergence herbicidal evaluation, TRZAW; type: in vivo
Excerpt: as §1

Alopecurus myosuroides [13] = assay: Post-emergence herbicidal evaluation, ALOMY
Experimental: as §4, §2, §3

Amaranthus tuberculatus [14] = assay: Post-emergence herbicidal evaluation, AMATA; type: in vivo
Amaranthus tuberculatus [15] = assay: Pre-emergence herbicidal evaluation, AMATA; type: in vivo
Excerpt: as §1

Hordeum vulgare [16] = assay: Pre-emergence herbicidal evaluation, HORVW; type: in vivo
Excerpt: as §1

Glycine max [17] = assay: Pre-emergence herbicidal evaluation, GLXMA; type: in vivo
Excerpt: as §1

Setaria viridis [18] = assay: Pre-emergence herbicidal evaluation, SETVI; type: in vivo
Excerpt: as §1

Galium aparine [19] = assay: Pre-emergence herbicidal evaluation, GALAP; type: in vivo
Excerpt: as §1

Zea mays [20] = assay: Pre-emergence herbicidal evaluation, ZEAMX; type: in vivo
Excerpt: as §1

Galium aparine [21] = assay: Post-emergence herbicidal evaluation, GALAP
Experimental: as §4, §2, §3

Lolium perenne [22] = assay: Pre-emergence herbicidal evaluation, LOLPE; type: in vivo
Excerpt: as §1

Zea mays [23] = assay: Post-emergence herbicidal evaluation, ZEAMX
Alopecurus myosuroides [24] = assay: Pre-emergence herbicidal evaluation, ALOMY; type: in vivo
Excerpt: as §1

## CCN(C(=O)COc1nc2ccccc2o1)C1=CC(C)(C)CC(C)=C1 [Example 2]
Echinochloa crus-galli [1]; 0.100 kg/ha
  phytotoxicity rating ECHCG: 1 (1 - Trace effect)
Echinochloa crus-galli [1]; 0.200 kg/ha
  phytotoxicity rating ECHCG: 2 (2 - Slight effect)
Echinochloa crus-galli [1]; 0.400 kg/ha
  phytotoxicity rating ECHCG: 8 (8 - Approaching complete kill)
Oryza sativum [2]; 0.100 kg/ha
  phytotoxicity rating ORYSA: 0 (0 - No effect)
Oryza sativum [2]; 0.200 kg/ha
  phytotoxicity rating ORYSA: 0 (0 - No effect)
Oryza sativum [2]; 0.400 kg/ha
  phytotoxicity rating ORYSA: 1 (1 - Trace effect)
Lolium perenne [3]; 0.100 kg/ha
  phytotoxicity rating LOLPE: 5 (5 - Definite injury)
Lolium perenne [3]; 0.200 kg/ha
  phytotoxicity rating LOLPE: 7 (7 - Good herbicidal effect)
Lolium perenne [3]; 0.400 kg/ha
  phytotoxicity rating LOLPE: 8 (8 - Approaching complete kill)
Hordeum vulgare [4]; 0.100 kg/ha
  phytotoxicity rating HORVW: 1 (1 - Trace effect)
Hordeum vulgare [4]; 0.200 kg/ha
  phytotoxicity rating HORVW: 2 (2 - Slight effect)
Hordeum vulgare [4]; 0.400 kg/ha
  phytotoxicity rating HORVW: 2 (2 - Slight effect)
Oryza sativum [5]; 0.100 kg/ha
  phytotoxicity rating ORYSA: 0 (0 - No effect)
Oryza sativum [5]; 0.200 kg/ha
  phytotoxicity rating ORYSA: 0 (0 - No effect)
Oryza sativum [5]; 0.400 kg/ha
  phytotoxicity rating ORYSA: 0 (0 - No effect)
Oryza sativum [5]; 0.800 kg/ha
  phytotoxicity rating ORYSA: 2 (2 - Slight effect)
Apera spica venti [6]; 0.100 kg/ha
  phytotoxicity rating APESV: 6 (6 - Herbicidal effect)
Apera spica venti [6]; 0.200 kg/ha
  phytotoxicity rating APESV: 7 (7 - Good herbicidal effect)
Apera spica venti [6]; 0.400 kg/ha
  phytotoxicity rating APESV: 7 (7 - Good herbicidal effect)
Setaria viridis [7]; 0.100 kg/ha
  phytotoxicity rating SETVI: 0 (0 - No effect)
Setaria viridis [7]; 0.200 kg/ha
  phytotoxicity rating SETVI: 2 (2 - Slight effect)
Setaria viridis [7]; 0.400 kg/ha
  phytotoxicity rating SETVI: 6 (6 - Herbicidal effect)
Glycine max [8]; 0.100 kg/ha
  phytotoxicity rating GLXMA: 5 (5 - Definite injury)
Glycine max [8]; 0.200 kg/ha
  phytotoxicity rating GLXMA: 7 (7 - Good herbicidal effect)
Glycine max [8]; 0.400 kg/ha
  phytotoxicity rating GLXMA: 7 (7 - Good herbicidal effect)
Triticum aestivum [9]; 0.100 kg/ha
  phytotoxicity rating TRZAW: 0 (0 - No effect)
Triticum aestivum [9]; 0.200 kg/ha
  phytotoxicity rating TRZAW: 0 (0 - No effect)
Triticum aestivum [9]; 0.400 kg/ha
  phytotoxicity rating TRZAW: 1 (1 - Trace effect)
Echinochloa crus-galli [10]; 0.100 kg/ha
  phytotoxicity rating ECHCG: 3 (3 - Moderate effect)
Echinochloa crus-galli [10]; 0.200 kg/ha
  phytotoxicity rating ECHCG: 5 (5 - Definite injury)
Echinochloa crus-galli [10]; 0.400 kg/ha
  phytotoxicity rating ECHCG: 8 (8 - Approaching complete kill)
Echinochloa crus-galli [10]; 0.800 kg/ha
  phytotoxicity rating ECHCG: 9 (9 - Complete kill)
Apera spica venti [11]; 0.100 kg/ha
  phytotoxicity rating APESV: 1 (1 - Trace effect)
Apera spica venti [11]; 0.200 kg/ha
  phytotoxicity rating APESV: 6 (6 - Herbicidal effect)
Apera spica venti [11]; 0.400 kg/ha
  phytotoxicity rating APESV: 9 (9 - Complete kill)
Apera spica venti [11]; 0.800 kg/ha
  phytotoxicity rating APESV: 9 (9 - Complete kill)
Triticum aestivum [12]; 0.100 kg/ha
  phytotoxicity rating TRZAW: 0 (0 - No effect)
Triticum aestivum [12]; 0.200 kg/ha
  phytotoxicity rating TRZAW: 0 (0 - No effect)
Triticum aestivum [12]; 0.400 kg/ha
  phytotoxicity rating TRZAW: 2 (2 - Slight effect)
Triticum aestivum [12]; 0.800 kg/ha
  phytotoxicity rating TRZAW: 2 (2 - Slight effect)
Alopecurus myosuroides [13]; 0.100 kg/ha
  phytotoxicity rating ALOMY: 0 (0 - No effect)
Alopecurus myosuroides [13]; 0.200 kg/ha
  phytotoxicity rating ALOMY: 4 (4 - Injury)
Alopecurus myosuroides [13]; 0.400 kg/ha
  phytotoxicity rating ALOMY: 7 (7 - Good herbicidal effect)
Amaranthus tuberculatus [14]; 0.100 kg/ha
  phytotoxicity rating AMATA: 5 (5 - Definite injury)
Amaranthus tuberculatus [14]; 0.200 kg/ha
  phytotoxicity rating AMATA: 6 (6 - Herbicidal effect)
Amaranthus tuberculatus [14]; 0.400 kg/ha
  phytotoxicity rating AMATA: 6 (6 - Herbicidal effect)
Amaranthus tuberculatus [15]; 0.100 kg/ha
  phytotoxicity rating AMATA: 2 (2 - Slight effect)
Amaranthus tuberculatus [15]; 0.200 kg/ha
  phytotoxicity rating AMATA: 6 (6 - Herbicidal effect)
Amaranthus tuberculatus [15]; 0.400 kg/ha
  phytotoxicity rating AMATA: 8 (8 - Approaching complete kill)
Amaranthus tuberculatus [15]; 0.800 kg/ha
  phytotoxicity rating AMATA: 8 (8 - Approaching complete kill)
Hordeum vulgare [16]; 0.100 kg/ha
  phytotoxicity rating HORVW: 0 (0 - No effect)
Hordeum vulgare [16]; 0.200 kg/ha
  phytotoxicity rating HORVW: 2 (2 - Slight effect)
Hordeum vulgare [16]; 0.400 kg/ha
  phytotoxicity rating HORVW: 2 (2 - Slight effect)
Hordeum vulgare [16]; 0.800 kg/ha
  phytotoxicity rating HORVW: 3 (3 - Moderate effect)
Glycine max [17]; 0.100 kg/ha
  phytotoxicity rating GLXMA: 0 (0 - No effect)
Glycine max [17]; 0.200 kg/ha
  phytotoxicity rating GLXMA: 0 (0 - No effect)
Glycine max [17]; 0.400 kg/ha
  phytotoxicity rating GLXMA: 0 (0 - No effect)
Glycine max [17]; 0.800 kg/ha
  phytotoxicity rating GLXMA: 0 (0 - No effect)
Setaria viridis [18]; 0.100 kg/ha
  phytotoxicity rating SETVI: 1 (1 - Trace effect)
Setaria viridis [18]; 0.200 kg/ha
  phytotoxicity rating SETVI: 4 (4 - Injury)
Setaria viridis [18]; 0.400 kg/ha
  phytotoxicity rating SETVI: 7 (7 - Good herbicidal effect)
Setaria viridis [18]; 0.800 kg/ha
  phytotoxicity rating SETVI: 8 (8 - Approaching complete kill)
Galium aparine [19]; 0.100 kg/ha
  phytotoxicity rating GALAP: 0 (0 - No effect)
Galium aparine [19]; 0.200 kg/ha
  phytotoxicity rating GALAP: 0 (0 - No effect)
Galium aparine [19]; 0.400 kg/ha
  phytotoxicity rating GALAP: 0 (0 - No effect)
Galium aparine [19]; 0.800 kg/ha
  phytotoxicity rating GALAP: 0 (0 - No effect)
Zea mays [20]; 0.100 kg/ha
  phytotoxicity rating ZEAMX: 0 (0 - No effect)
Zea mays [20]; 0.200 kg/ha
  phytotoxicity rating ZEAMX: 0 (0 - No effect)
Zea mays [20]; 0.400 kg/ha
  phytotoxicity rating ZEAMX: 0 (0 - No effect)
Zea mays [20]; 0.800 kg/ha
  phytotoxicity rating ZEAMX: 1 (1 - Trace effect)
Galium aparine [21]; 0.100 kg/ha
  phytotoxicity rating GALAP: 0 (0 - No effect)
Galium aparine [21]; 0.200 kg/ha
  phytotoxicity rating GALAP: 2 (2 - Slight effect)
Galium aparine [21]; 0.400 kg/ha
  phytotoxicity rating GALAP: 3 (3 - Moderate effect)
Lolium perenne [22]; 0.100 kg/ha
  phytotoxicity rating LOLPE: 0 (0 - No effect)
Lolium perenne [22]; 0.200 kg/ha
  phytotoxicity rating LOLPE: 2 (2 - Slight effect)
Lolium perenne [22]; 0.400 kg/ha
  phytotoxicity rating LOLPE: 8 (8 - Approaching complete kill)
Lolium perenne [22]; 0.800 kg/ha
  phytotoxicity rating LOLPE: 9 (9 - Complete kill)
Zea mays [23]; 0.100 kg/ha
  phytotoxicity rating ZEAMX: 0 (0 - No effect)
Zea mays [23]; 0.200 kg/ha
  phytotoxicity rating ZEAMX: 0 (0 - No effect)
Zea mays [23]; 0.400 kg/ha
  phytotoxicity rating ZEAMX: 0 (0 - No effect)
Alopecurus myosuroides [24]; 0.100 kg/ha
  phytotoxicity rating ALOMY: 1 (1 - Trace effect)
Alopecurus myosuroides [24]; 0.200 kg/ha
  phytotoxicity rating ALOMY: 5 (5 - Definite injury)
Alopecurus myosuroides [24]; 0.400 kg/ha
  phytotoxicity rating ALOMY: 6 (6 - Herbicidal effect)
Alopecurus myosuroides [24]; 0.800 kg/ha
  phytotoxicity rating ALOMY: 6 (6 - Herbicidal effect)

From patent publication US6339042B1, “Herbicidal N-cyclohexadienyl heteroaryloxyacetamides” (American Cyanamid Co., priority 1999, dated 2002)
